The text below walks through data of patent publication US20260242350A1, “POLYCYCLIC THYROID HORMONE BETA RECEPTOR AGONIST AND USE THEREOF” (CASCADE PHARMACEUTICALS, INC., priority 2023, published 2026).

In one assay the target is T1, THRβ (pGAL4-THRβ-LBD) (Homo sapiens, UniProt P10828).
T1 construct: expressed in transfected cells; host or cells: HEK293T
T1 sequence (P10828 217-461): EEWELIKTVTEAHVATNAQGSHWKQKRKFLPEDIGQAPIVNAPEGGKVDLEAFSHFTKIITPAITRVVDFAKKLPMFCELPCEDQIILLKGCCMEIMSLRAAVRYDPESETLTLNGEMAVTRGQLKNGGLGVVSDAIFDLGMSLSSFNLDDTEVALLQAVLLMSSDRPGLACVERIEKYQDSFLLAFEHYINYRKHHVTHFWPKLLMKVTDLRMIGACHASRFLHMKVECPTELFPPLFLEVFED
The assay can be described thus: Reporter gene (Dual-Glo luciferase) agonist activity assay in HEK293T cells, THRβ. It is filed as cell-based. The settings on record: ratio of EC50 THRα/THRβ. An excerpt:
Experimental Example 2: Detection of Agonist Activities of Compounds Against THRα and THRβ Based on Reporter Gene Activity Assay Method
1.1 Construction and Preparation of Plasmids pGAL4-THR-LBD and pG5-Luc
The pGAL4-THRα-LBD and pGAL4-THRβ-LBD plasmids used in the reporter gene assay system were constructed by a conventional molecular cloning method comprising the following main steps: the cDNA sequences of THRα (NM_003250) and THRβ(NM_000461) corresponding to the amino acid sequences of THRα (163-407AA) and THRβ(217-461AA) were inserted into the BamHI and NotI enzyme digestion sites of the pGAL4 vector by the PCR technique respectively to obtain the pGAL4-THRα-LBD and pGAL4-THRβ-LBD plasmids; the pG5-Luc (#E249A) and pRL-TK (#E2241) plasmids were purchased from Promega; the plasmids were transfected into the E. coli DH5a by the CaCl2 method, and after further culture and amplification, the plasmids were purified by Plasmid Extraction Kits (TIANGEN, #D107) to obtain the corresponding plasmid DNAs.
1.2 Co-Transfection of Plasmids into HEK293T Cells and Treatment with Compounds
The HEK293T cells were inoculated into a 96-well plate at a density of 1×10^4/well the day before plasmid transfection. Cell transfection was conducted according to the instructions of the transfection reagent FuGENE® HD (Promega, #E2311). The main steps were as follows: taking one well as an example here, the plasmids pGAL4-THRα-LBD or pGAL4-THRβ-LBD, pG5-Luc, and pRL-TK were added in the proportions of 20 ng, 50 ng, and 5 ng to 10 μL of Opti-MEM™ I medium (Gibco, #11058021) and mixed well; subsequently, 0.25 μL of FuGENE® HD was added, mixed well, and then left at room temperature for 5 min; afterwards, […] was added to the cell wells containing 100 μL of culture medium. After cell co-transfection for 6 h, the compound was diluted in a 3-fold gradient with dimethyl sulfoxide at the highest concentration of 1 μM. The compound was added to the cell culture medium at a total of 10 concentrations for treatment for 24 h. There were a total of two duplicate wells for each concentration. Triiodothyronine (T3) was used as the positive control.
1.3 Dual-Glo Luciferase Assay
After the cells were treated with the compound for 24 h, the cells were assayed according to the instructions of Dual-Glo® Luciferase Assay System (Promega, #E2940). The main steps were as follows: 50 μL of culture medium was aspirated from each well and discarded, and then 50 μL of Dual-Glo® Luciferase reagent was added and oscillated at room temperature for 10 min; 80 μL of lysis reaction solution was measured into a white opaque optiPlate-96-well plate, and the luminescence signal value (Firefly-Luc) of the Firefly luciferase was detected using an MD i3x multi-mode microplate reader; 40 μL of Dual-Glo® Stop & Glo® reagent was then added, and oscillated at room temperature for 10 min; the luminescence signal value (Renilla-Luc) of the Renilla luciferase was then detected using an MD i3x multi-mode microplate reader. The Firefly-Luc/Renilla-Luc ratio was used as the activation activity of the compound against THR, and was normalized against the ratio in the vehicle DMSO group; the dose-response curve was fitted with four parameters using the GraphPad Prism6.0 software, and the EC50 value was calculated.
For orientation: Reporter assays use an easily measured gene product as a stand-in for the process of interest.

The target in assay [1] is T2, THRα LBD (His-GST-dLBT-THRα LBD) (Homo sapiens, UniProt P10827).
T2 construct: made in house; host or cells: E. coli BL21 (DE3)
T2 sequence (P10827 163-407 isoform P10827-2): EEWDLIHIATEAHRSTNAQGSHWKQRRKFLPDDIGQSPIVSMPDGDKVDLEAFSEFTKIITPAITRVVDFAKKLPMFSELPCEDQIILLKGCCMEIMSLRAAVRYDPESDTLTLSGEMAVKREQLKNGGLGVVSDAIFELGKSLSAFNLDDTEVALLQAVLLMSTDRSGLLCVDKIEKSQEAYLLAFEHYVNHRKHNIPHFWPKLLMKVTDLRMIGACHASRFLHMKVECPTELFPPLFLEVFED
The assay can be described thus: THR-FRET (time-resolved fluorescence resonance energy transfer) agonist activity assay, THRα. It is filed as biochemical. Particulars: 24 h at room temperature. An excerpt:
(§1) Experimental Example 1: Detection of Agonist Activities of Compounds Against THRα/β Based on Time-Resolved Fluorescence Resonance Energy Transfer (THR-FRET)
(§2) 1. Construction of THRα/β Overexpression Vectors
(§3) By visiting NCBI, the THRα/β LBD domain sequences were found. The pET21-His-GST-dLBT-THRα LBD and pET21-His-GST-dLBT-THRβLBD overexpression vectors were constructed by the fusion method, and sequenced to confirm the accuracy of the sequences.
(§4) 2. Prokaryotic Expression of Recombinant Proteins in E. coli
(§5) The THRα LBD and THRβLBD overexpression vectors confirmed by sequencing were transfected into E. coli cells BL21 (DE3), and spread on an ampicillin-resistant agar plate. Monoclones were picked out and amplified in an LB medium, and transferred into 1 L LB at a ratio of 1:100 for large-scale culture. When the OD value was at 0.8 to 1.2, 0.5 mM isopropyl-beta-D-thiogalactopyranoside (IPTG) was added, and induced overnight at 18° C. The bacteria were harvested, disrupted, and purified via the GST column and the molecular sieve to obtain two proteins His-GST-dLBT-THRα LBD and His-GST-dLBT-THRβLBD.
(§6) 3. Preparation of Compounds and Formulation of Reaction System
(§7) The proteins were taken out from a refrigerator at −80° C. The protein s with the GST-tagged THRα/p LBD domain and the Eu-labelled GST antibodies were thawed slowly on ice, and an assay buffer containing a final concentration of 5 mM dithiothreitol (DTT) was formulated.
(§8) 3.1 Preparation of Compounds
(§9) The starting concentration of the compound was 10 μM (in DMSO). The compound (100 μM in DMSO) was subjected to 3-fold isogradient dilution with DMSO to obtain a total of 11 isogradient concentrations. Subsequently, the above compounds at the isogradient concentration were further subjected to 50-fold dilution with an assay buffer containing 5 mM DTT.
(§10) 3.2 Formulation of THR-FRET Reaction System
(§11) The final concentrations of all components were calculated based on a system with a final volume of 20 µL per well. To […] of assay buffer containing 5 mM DTT, the GST-tagged THRα/β proteins, the SRC2 ([…]) polypeptide, XL665 (Cisobio, #610SAXLB), and the Eu-labeled GST antibody were added, and the final concentrations were 2 nM, 200 nM, 0.05 nM, and 7.6 nM respectively to formulate 18 μL of reaction mixture of the proteins, polypeptide, and antibody per well.
(§12) 18 μL of reaction mixture and 2 μL of diluted compound were added into an optiplate-384-well plate, and reacted at room temperature for 24 h.
(§13) The plate was read using an MD i3x multi-mode microplate reader with the excitation and emission wavelengths of 340 nm and 665 nm, respectively. The intensity of light at a wavelength of 616 nm generated by europium excited by 340 nm wavelength light from the MD i3x multi-mode microplate reader was used as the background. According to the different activation degrees of different compounds against THRα and THRβ, the intensity of the emission light at a wavelength of 665 nm generated by exciting XL665 with the exciting light at a wavelength of 616 nm was varied. The intensity ratio between these two light wavelengths (665 nm, 616 nm) was used as the activation activity of the compound against THRα or THRβ, and was normalized against the ratio in the vehicle DMSO group. The dose-response curve was fitted with four parameters using the GraphPad Prism 6.0 software, and the EC50 value was calculated.

Assay [2] concerns the target T3, THRβ LBD (His-GST-dLBT-THRβLBD) (Homo sapiens, UniProt P10828).
T3 construct: made in house; host or cells: E. coli BL21 (DE3)
T3 sequence (P10828 217-461 limits assumed): T1 sequence (P10828 217-461)
The assay can be described thus: THR-FRET (time-resolved fluorescence resonance energy transfer) agonist activity assay, THRβ. It is filed as biochemical. Particulars: for EC50: 24 h at room temperature; for Selectivity (THRα/THRβ): ratio of EC50 THRα/THRβ.
Source text: as §1, §2, §3, §4, §5, §6, §7, §8, §9, §10, §11, §12, §13

As usually defined, the EC50 is the midpoint of the concentration-response curve. Low readings indicate greater potency, high ones weaker potency. `Cc1nn(-c2cc(Br)c(Cn3ccc(=O)c4c(C)cccc43)c(Br)c2)c(=O)[nH]c1=O` [Compound 45]: the figures for the “Selectivity (THRα/THRβ)” value (at THRβ (pGAL4-THRβ-LBD); in assay [2]) were “† (5 ≥ THRα/β)” and “†† (10 > THRα/β > 1)”, respectively. The EC50 in assay [1] was 100 to 1000 nM; in assay [2], less than 50 nM.

Consider `Cc1nn(-c2cc(Cl)c(Cn3ccc(=O)c4c(C)cccc43)c(Br)c2)c(=O)[nH]c1=O` [Compound 46], for which the “Selectivity (THRα/THRβ)” value at THRβ (pGAL4-THRβ-LBD) was “† (5 ≥ THRα/β)”; in assay [2] it was “†† (10 > THRα/β > 1)”. Besides, the EC50 was 50 to 100 nM in assay [1] and less than 50 nM in assay [2].

Take `Cc1cccc2c1c(=O)ccn2Cc1c(Cl)cc(-n2nc(C(F)F)c(=O)[nH]c2=O)cc1Cl` [Compound 47]: the “Selectivity (THRα/THRβ)” value at THRβ (pGAL4-THRβ-LBD) is recorded as “† (5 ≥ THRα/β)”; in assay [2], “†† (10 > THRα/β > 1)”. The EC50 in assay [1] was 100 to 1000 nM; in assay [2], less than 50 nM.

Consider `Cc1cccc2c1c(=O)ccn2Cc1c(Cl)cc(-n2nc(C(F)F)c(=O)[nH]c2=O)cc1Br` [Compound 48], for which the “Selectivity (THRα/THRβ)” value at THRβ (pGAL4-THRβ-LBD) is “† (5 ≥ THRα/β)”; in assay [2] it was “†† (10 > THRα/β > 1)”. In addition, the EC50 in assay [1] and in assay [2] was less than 50 nM throughout.

Turning to `Cc1cccc2c1c(=O)ccn2Cc1c(Br)cc(-n2nc(C(F)F)c(=O)[nH]c2=O)cc1Br` [Compound 49], the “Selectivity (THRα/THRβ)” value on THRβ (pGAL4-THRβ-LBD) is listed as “† (5 ≥ THRα/β)”; in assay [2], “†† (10 > THRα/β > 1)”. Besides, the concentration giving a half-maximal response (EC50) in assay [1] and in assay [2] was 50 to 100 nM in each case.

On to `[2H]C(F)(F)c1nn(-c2cc(Br)c(Cn3ccc(=O)c4ccccc43)c(Br)c2)c(=O)[nH]c1=O` [Compound 71], for which the “Selectivity (THRα/THRβ)” value is on record as “†††† (THRα/β > 20)” on THRβ (pGAL4-THRβ-LBD) and “†† (10 > THRα/β > 1)” in assay [2]. The results for the EC50 in assay [1] and in assay [2] were 50 to 100 nM and less than 50 nM, respectively.

For the compound `[2H]C(c1c(Br)cc(-n2nc(C(F)F)c(=O)[nH]c2=O)cc1Br)n1ccc(=O)c2ccccc21` (stereo not shown) [Compound 72], the “Selectivity (THRα/THRβ)” value is “††† (20 ≥ THRα/β > 10)” on THRβ (pGAL4-THRβ-LBD) and “†† (10 > THRα/β > 1)” in assay [2]. Moreover, the EC50 in assay [1] is 50 to 100 nM; in assay [2], less than 50 nM.
